Data set [1] is described as follows: Caco-2 permeability assay (CacoReady kit). The format is in vitro ADME. The settings on record: human. The essentials:
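Papp values come from Caco-2 barrier studies intended to predict oral bioavailability; the manufacturer's procedure for the ready-made kit was followed.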
For orientation: Caco-2 monolayers are a common model of the intestinal barrier.

Data set [2] in a line: Single-dose oral pharmacokinetic profile in mice. It is filed as in vivo. As to conditions: male C57BL/6 mice, single oral dose 200 mg/kg. How it is done:
Presumed from promising Papp values (permeability coefficients, see below), the 5 inventors had proven the oral bioavailability of the inhibitors of the present application by the representative compounds II-3, II-15, and II-28. For this selected set of representative compounds, pharmacokinetic profiles were determined in male C57BL/6 mice (N=3, each). Briefly, the compounds were administered as single-dose soluble, oral formulation [20 mg/ml in PBS/(2—Hydroxypropyl)-β-cyclodextrin formulation] at 200 mg/kg. Plasma samples were taken at (0, 0.25, 0.5, 1, 2, 4, and 6 hours) and analyzed by LC-MS to determine the concentration of the representative compounds.

Data set [3] can be described thus: Multiple-dosing PK study, tissue concentration in lung and liver. The format is in vivo. The settings on record: mice, 200 mg/kg oral twice daily, after the eighth dose (four days). How it is done: Additionally, in a multiple-dosing PK study, II-3 was orally administered to 3 mice with 200 mg/kg doses (dose volume 10 mL/kg) twice daily (12 h intervals). After the animals were sacrificed, the liver and lung were removed. The homogenates of the respective tissues were analyzed by LC-MS to determine the concentration of the compound. The tissue concentration in lung and liver after the eighth dose (four days) was 6,800 and 10,400 ng/g, respectively, showing that the compound reaches the tissue at pharmacological active concentration.

Data set [4] is described as follows: logD by shake flask method (octanol / PBS pH 7.4, HPLC). The format is physicochemical. The settings on record: octanol / PBS pH 7.4, shake flask. In a few lines:
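Shake-flask partition of compound between octanol and phosphate-buffered saline at pH 7.4, with each phase quantified by HPLC to give LogD.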

From US20240383856A1 (Zedira GmbH, priority 2021, published 2024) come the findings set out here.

Like-named read-outs stand apart in the source and are kept apart here.

Broadly, the CL/F is clearance divided by bioavailability, as obtained after extravascular dosing. The term MRT denotes a mean duration of stay, worked out from the concentration-time curve. By half-life is commonly meant how long it takes for the measured level to halve. One may read the AUC(0-t) as exposure summed from dosing to a finite time, without extrapolation to infinity. What is called logD is lipophilicity at a set pH, counting ionised and neutral species. A lower logD goes with lower lipophilicity. On to `CNC(=O)C(=O)CC[C@H](NC(=O)c1oc2ccccc2c1C)C(=O)Nc1cccn(CC(=O)NC2C3CC4CC(C3)CC2C4)c1=O` (stereo partly drawn) [II-3, (S)-N1-(1-(2-(2-adamantylamino)-2-oxoethyl)-2-oxo-1,2-dihydropyridin-3-yl)-N6-methyl-2-(3-methylbenzofuran-2-carboxamido)-5-oxohexanediamide], for which the Papp in data set [1] (Caco-2, Caco-2, read-out: Papp [cm/s] ×10^−6) was 84 nm/s. For the same molecule, in data set [1] (Caco-2, Caco-2 barrier, CacoReady kit, above 1×10^−6 cm/s classified as permeable), the Papp was 10 to 100 nm/s. In data set [2], the “Kel” value was found to be 1.0 h⁻¹. In data set [2] (mouse, plasma), this molecule had an apparent clearance CL/F of 16.6 L/h/kg, an MRT of 60 min, a half-life of 42 min and an AUC(0-t) of 12 µg·h/mL. In addition, the Cmax in data set [2] (mouse, plasma, read-out: Cmax) was determined as 21.6 µM. The Cmax in data set [2] (mouse, plasma, read-out: Cmax [ng/ml]) amounted to 13600 ng/mL. In addition, in data set [3], the “tissue concentration in liver” value was 10,400 ng/g and the “tissue concentration in lung” value is 6,800 ng/g. The molecule further displayed a logD in data set [4] of 1 to 3.
